Measurements as given in patent US10358434B2, “2-(3-pyridinyl)-1H-benzimidazole derivative compound and medicament containing same” (NIHON MEDI-PHYSICS CO., LTD., priority 2014, dated 2019).

Tests used:
[1] = system: human adrenal gland section expressing aldosterone-producing adenoma; test: In vitro autoradiography using human adrenal adenoma; format: binding; conditions: section of FIG. 17(b)
How it was run: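 Frozen 7-μm sections of human adrenal bearing aldosterone-producing adenoma were immersed 10 min in radioligand (5-33 kBq/mL) in PBS with 1% fatty-acid-free BSA, washed, then exposed to imaging plates for 16-20 h. Equal-area ROI PSL in adenoma (B2) versus normal cortex (B1) gave B2/B1, corrected for nuclide half-life, added activity and exposure time.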

[2] = In vivo kinetics experiment (radioactivity distribution); design: species or system Wistar male rat; conditions: rat i.v., mean ± SD
How it was run: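 Male Wistar rats (9 weeks) under isoflurane received approximately 1 to 3.7 MBq radiotracer in saline with 1 w/v % ascorbic acid by tail-vein injection. At 10, 30 and 60 min, rats were exsanguinated; blood, organs and remaining body weighed and counted, giving % ID/g and adrenal-to-tissue ratios.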

[3] = Plasma stability evaluation (TLC analysis); format: in vitro ADME; conditions: 37° C., 60 minutes, TLC analysis
Method: Evaluation was made using a heparin-treated normal human plasma pool (Kohjin Bio Co., Ltd.). Compounds [^18F] 100, [^18F] 200, [^123I] 400, [^18F] 500, and [^123I] 601 to 610 obtained by the methods shown in Examples 2, 4, 7, 9, 11, 13, 15, 17, 19, 21, 23, 25, 27, and 29 were each added to the aforementioned human plasma (5 mL), and the obtained mixture was then incubated at 37° C. for 60 minutes. Thereafter, the mixture was centrifuged with addition of methanol, so that a deproteinization treatment was carried out. Thereafter, stability was evaluated by TLC analysis. As TLC analysis conditions, the TLC analysis conditions applied upon the above described synthesis of each compound were applied.

In the case of `CC(C)n1c(-c2cncc(Cn3ccnc3)c2)nc2ccc([123I])cc21` [[^123I] 606, 2-[5-{(1H-imidazol-1-yl)methyl}pyridin-3-yl]-6-[^123I]iodo-1-isopropyl-1H-benzo[d]imidazole], the B2/B1 accumulation ratio [1] was 0.87, the “B2 (PSL value, aldosterone-producing adenoma)” value ([1]; site 71b) was 1655 and the “B1 (PSL value, normal adrenal cortex)” value ([1]; site 72b) was 1913. For the same molecule, the “Adrenal gland/blood ratio of radioactivity accumulation” value (from here on “Adrenal gland/blood ratio”) ([2]; 10 min after administration) was 85.09 ± 27.52, the “Adrenal gland/fat ratio of radioactivity accumulation” value (from here on “Adrenal gland/fat ratio”) ([2]; 10 min after administration) was 100.88 ± 26.65 and the “Adrenal gland/kidney ratio of radioactivity accumulation” value (“Adrenal gland/kidney ratio” below) ([2]; 10 min after administration) was 10.11 ± 2.69. The “Adrenal gland/liver ratio of radioactivity accumulation” value (from here on “Adrenal gland/liver ratio”) ([2]; 10 min after administration) was 4.02 ± 1.20, the “Adrenal gland/muscle ratio of radioactivity accumulation” value (from here on “Adrenal gland/muscle ratio”) ([2]; 10 min after administration) was 57.42 ± 9.23 and the “Adrenal gland/small intestine ratio of radioactivity accumulation” value (shortened to “Adrenal gland/small intestine ratio”) ([2]; 10 min after administration) was 9.70 ± 3.04. For the same molecule, the “Radioactivity distribution Adrenal gland” value ([2]; 10 min after administration) was 13.01 ± 3.75 % ID/g, the “Radioactivity distribution Bladder (including urine)” value (“Radioactivity distribution Bladder” for short) ([2]; 10 min after administration) was 0.27 ± 0.01 % ID/g and the “Radioactivity distribution Blood” value ([2]; 10 min after administration) was 0.15 ± 0.01 % ID/g. For the same molecule, the “Radioactivity distribution Fat” value ([2]; 10 min after administration) was 0.13 ± 0.01 % ID/g, the “Radioactivity distribution Femur” value ([2]; 10 min after administration) was 0.59 ± 0.02 % ID/g and the “Radioactivity distribution Heart” value ([2]; 10 min after administration) was 0.56 ± 0.04 % ID/g. For the same molecule, the “Radioactivity distribution Kidney” value ([2]; 10 min after administration) was 1.29 ± 0.11 % ID/g, the “Radioactivity distribution Large intestine” value ([2]; 10 min after administration) was 0.17 ± 0.00 % ID/g and the “Radioactivity distribution Liver” value ([2]; 10 min after administration) was 3.24 ± 0.05 % ID/g. The “Radioactivity distribution Lung” value ([2]; 10 min after administration) was 0.86 ± 0.07 % ID/g, the “Radioactivity distribution Muscle (lower limbs)” value ([2]; 10 min after administration) was 0.22 ± 0.04 % ID/g and the “Radioactivity distribution Remaining whole body” value ([2]; 10 min after administration) was 0.29 ± 0.02 % ID/g. The “Radioactivity distribution Small intestine” value ([2]; 10 min after administration) was 1.35 ± 0.04 % ID/g, the “Radioactivity distribution Spleen” value ([2]; 10 min after administration) was 4.55 ± 0.41 % ID/g and the “Radioactivity distribution Stomach” value ([2]; 10 min after administration) was 0.75 ± 0.09 % ID/g. The “Radioactivity distribution Testis” value ([2]; 10 min after administration) was 0.08 ± 0.00 % ID/g, the “Radioactivity distribution Whole brain” value ([2]; 10 min after administration) was 0.03 ± 0.00 % ID/g and the “Adrenal gland/blood ratio” value ([2]; 30 min after administration) was 151.28 ± 30.77. For the same molecule, the “Adrenal gland/fat ratio” value ([2]; 30 min after administration) was 172.63 ± 42.67, the “Adrenal gland/kidney ratio” value ([2]; 30 min after administration) was 20.98 ± 3.60 and the “Adrenal gland/liver ratio” value ([2]; 30 min after administration) was 8.21 ± 1.88. The “Adrenal gland/muscle ratio” value ([2]; 30 min after administration) was 130.86 ± 25.55, the “Adrenal gland/small intestine ratio” value ([2]; 30 min after administration) was 7.82 ± 2.11 and the “Radioactivity distribution Adrenal gland” value ([2]; 30 min after administration) was 21.23 ± 4.43 % ID/g. For the same molecule, the “Radioactivity distribution Bladder” value ([2]; 30 min after administration) was 1.17 ± 0.36 % ID/g, the “Radioactivity distribution Blood” value ([2]; 30 min after administration) was 0.14 ± 0.00 % ID/g and the “Radioactivity distribution Fat” value ([2]; 30 min after administration) was 0.12 ± 0.01 % ID/g. For the same molecule, the “Radioactivity distribution Femur” value ([2]; 30 min after administration) was 0.50 ± 0.01 % ID/g, the “Radioactivity distribution Heart” value ([2]; 30 min after administration) was 0.44 ± 0.01 % ID/g and the “Radioactivity distribution Kidney” value ([2]; 30 min after administration) was 1.01 ± 0.04 % ID/g. The “Radioactivity distribution Large intestine” value ([2]; 30 min after administration) was 0.23 ± 0.01 % ID/g, the “Radioactivity distribution Liver” value ([2]; 30 min after administration) was 2.59 ± 0.07 % ID/g and the “Radioactivity distribution Lung” value ([2]; 30 min after administration) was 0.65 ± 0.03 % ID/g. The “Radioactivity distribution Muscle (lower limbs)” value ([2]; 30 min after administration) was 0.16 ± 0.01 % ID/g, the “Radioactivity distribution Remaining whole body” value ([2]; 30 min after administration) was 0.24 ± 0.01 % ID/g and the “Radioactivity distribution Small intestine” value ([2]; 30 min after administration) was 2.75 ± 0.21 % ID/g. For the same molecule, the “Radioactivity distribution Spleen” value ([2]; 30 min after administration) was 3.80 ± 0.26 % ID/g, the “Radioactivity distribution Stomach” value ([2]; 30 min after administration) was 1.66 ± 0.35 % ID/g and the “Radioactivity distribution Testis” value ([2]; 30 min after administration) was 0.11 ± 0.01 % ID/g. For the same molecule, the “Radioactivity distribution Whole brain” value ([2]; 30 min after administration) was 0.03 ± 0.00 % ID/g, the “Adrenal gland/blood ratio” value ([2]; 60 min after administration) was 161.94 ± 14.16 and the “Adrenal gland/fat ratio” value ([2]; 60 min after administration) was 229.99 ± 79.47. For the same molecule, the “Adrenal gland/kidney ratio” value ([2]; 60 min after administration) was 22.62 ± 2.40, the “Adrenal gland/liver ratio” value ([2]; 60 min after administration) was 8.81 ± 1.68 and the “Adrenal gland/muscle ratio” value ([2]; 60 min after administration) was 168.08 ± 24.28. For the same molecule, the “Adrenal gland/small intestine ratio” value ([2]; 60 min after administration) was 5.20 ± 0.46, the “Radioactivity distribution Adrenal gland” value ([2]; 60 min after administration) was 19.67 ± 3.42 % ID/g and the “Radioactivity distribution Bladder” value ([2]; 60 min after administration) was 2.06 ± 0.40 % ID/g. The “Radioactivity distribution Blood” value ([2]; 60 min after administration) was 0.12 ± 0.01 % ID/g, the “Radioactivity distribution Fat” value ([2]; 60 min after administration) was 0.09 ± 0.02 % ID/g and the “Radioactivity distribution Femur” value ([2]; 60 min after administration) was 0.62 ± 0.04 % ID/g. For the same molecule, the “Radioactivity distribution Heart” value ([2]; 60 min after administration) was 0.40 ± 0.02 % ID/g, the “Radioactivity distribution Kidney” value ([2]; 60 min after administration) was 0.87 ± 0.07 % ID/g and the “Radioactivity distribution Large intestine” value ([2]; 60 min after administration) was 0.35 ± 0.06 % ID/g. For the same molecule, the “Radioactivity distribution Liver” value ([2]; 60 min after administration) was 2.24 ± 0.16 % ID/g, the “Radioactivity distribution Lung” value ([2]; 60 min after administration) was 0.60 ± 0.03 % ID/g and the “Radioactivity distribution Muscle (lower limbs)” value ([2]; 60 min after administration) was 0.12 ± 0.01 % ID/g. For the same molecule, the “Radioactivity distribution Remaining whole body” value ([2]; 60 min after administration) was 0.22 ± 0.01 % ID/g, the “Radioactivity distribution Small intestine” value ([2]; 60 min after administration) was 3.77 ± 0.38 % ID/g and the “Radioactivity distribution Spleen” value ([2]; 60 min after administration) was 3.05 ± 0.35 % ID/g. The “Radioactivity distribution Stomach” value ([2]; 60 min after administration) was 1.90 ± 0.35 % ID/g, the “Radioactivity distribution Testis” value ([2]; 60 min after administration) was 0.16 ± 0.03 % ID/g and the “Radioactivity distribution Whole brain” value ([2]; 60 min after administration) was 0.03 ± 0.00 % ID/g. For the same molecule, the “Radiochemical purity after incubation in human plasma” value [3] was 88%.
